{
  "source": "the supplement of paper PMC10307832",
  "assay_in_all_cases": "relative viability (nuclei count vs DMSO), 5 days (fraction); higher = more cells survive",
  "key": {"[1]": {"test_system": "RERF-LC-KJ", "how_it_was_run": "(§1)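 Lung cancer cell lines, seeded in 1536-well plates, were treated the following day by pin tool with a single drug or with five library-drug doses (not always all listed) in √10 steps on top of a fixed anchor-drug dose. Cells were fixed and nuclei stained in one step after 5 days, and nuclei were counted. Relative viability is the nuclei count for treated wells divided by that for vehicle wells, reported as medians of duplicate plates.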"}, "[2]": {"test_system": "NCI-H727", "how_it_was_run": "as §1"}, "[3]": {"test_system": "NCI-H441", "how_it_was_run": "as §1"}, "[4]": {"test_system": "NCI-H2347", "how_it_was_run": "as §1"}, "[5]": {"test_system": "NCI-H1792", "how_it_was_run": "as §1"}, "[6]": {"test_system": "NCI-H1651", "how_it_was_run": "as §1"}, "[7]": {"test_system": "NCI-H1755", "how_it_was_run": "as §1"}, "[8]": {"test_system": "NCI-H650", "how_it_was_run": "as §1"}, "[9]": {"test_system": "NCI-H322M", "how_it_was_run": "as §1"}, "[10]": {"test_system": "PC-14", "how_it_was_run": "as §1"}, "[11]": {"test_system": "SW 900", "how_it_was_run": "as §1"}, "[12]": {"test_system": "NCI-H3122", "how_it_was_run": "as §1"}, "[13]": {"test_system": "NCI-H596", "how_it_was_run": "as §1"}, "[14]": {"test_system": "LXF-289", "how_it_was_run": "as §1"}, "[15]": {"test_system": "NCI-H1355", "how_it_was_run": "as §1"}, "[16]": {"test_system": "NCI-H2170", "how_it_was_run": "as §1"}, "[17]": {"test_system": "NCI-H1915", "how_it_was_run": "as §1"}, "[18]": {"test_system": "NCI-H460", "how_it_was_run": "as §1"}, "[19]": {"test_system": "LCLC-103H", "how_it_was_run": "as §1"}, "[20]": {"test_system": "NCI-H522", "how_it_was_run": "as §1"}},
  "data": [
    {"compound": "COc1cc(N2CCC(C(N)=O)CC2)ccc1Nc1nc(N)c(Cl)c(Nc2ccccc2S(=O)(=O)C(C)C)n1", "note": "[HG-5-88-01] + NC(=O)Nc1cc(-c2cccc(F)c2)sc1C(=O)N[C@H]1CCCNC1 [AZD7762] (partner 0.2 µM)", "values": [
      {"measurement": "relative viability", "setting": "[1]; first compound 0.04 µM", "result": 0.995},
      {"measurement": "relative viability", "setting": "[1]; first compound 0.1265 µM", "result": 1.07},
      {"measurement": "relative viability", "setting": "[1]; first compound 0.4 µM", "result": 0.979},
      {"measurement": "relative viability", "setting": "[1]; first compound 1.265 µM", "result": 0.747},
      {"measurement": "relative viability", "setting": "[1]; first compound 4 µM", "result": 0.563},
      {"measurement": "relative viability", "setting": "[2]; first compound 0.04 µM", "result": 0.729},
      {"measurement": "relative viability", "setting": "[2]; first compound 0.1265 µM", "result": 0.633},
      {"measurement": "relative viability", "setting": "[2]; first compound 0.4 µM", "result": 0.597},
      {"measurement": "relative viability", "setting": "[2]; first compound 4 µM", "result": 0.377},
      {"measurement": "relative viability", "setting": "[3]; first compound 0.04 µM", "result": 0.964},
      {"measurement": "relative viability", "setting": "[3]; first compound 0.1265 µM", "result": 0.931},
      {"measurement": "relative viability", "setting": "[3]; first compound 0.4 µM", "result": 1.19},
      {"measurement": "relative viability", "setting": "[3]; first compound 1.265 µM", "result": 1.08},
      {"measurement": "relative viability", "setting": "[3]; first compound 4 µM", "result": 0.998},
      {"measurement": "relative viability", "setting": "[4]; first compound 0.04 µM", "result": 0.881},
      {"measurement": "relative viability", "setting": "[4]; first compound 0.1265 µM", "result": 0.9},
      {"measurement": "relative viability", "setting": "[4]; first compound 0.4 µM", "result": 0.82},
      {"measurement": "relative viability", "setting": "[4]; first compound 1.265 µM", "result": 0.718},
      {"measurement": "relative viability", "setting": "[4]; first compound 4 µM", "result": 0.804},
      {"measurement": "relative viability", "setting": "[5]; first compound 0.04 µM", "result": 0.752},
      {"measurement": "relative viability", "setting": "[5]; first compound 0.1265 µM", "result": 0.648},
      {"measurement": "relative viability", "setting": "[5]; first compound 0.4 µM", "result": 0.645},
      {"measurement": "relative viability", "setting": "[5]; first compound 1.265 µM", "result": 0.581},
      {"measurement": "relative viability", "setting": "[5]; first compound 4 µM", "result": 0.557},
      {"measurement": "relative viability", "setting": "[6]; first compound 0.04 µM", "result": 0.463},
      {"measurement": "relative viability", "setting": "[6]; first compound 0.1265 µM", "result": 0.447},
      {"measurement": "relative viability", "setting": "[6]; first compound 0.4 µM", "result": 0.439},
      {"measurement": "relative viability", "setting": "[6]; first compound 1.265 µM", "result": 0.342},
      {"measurement": "relative viability", "setting": "[6]; first compound 4 µM", "result": 0.321},
      {"measurement": "relative viability", "setting": "[7]; first compound 0.04 µM", "result": 0.465},
      {"measurement": "relative viability", "setting": "[7]; first compound 0.1265 µM", "result": 0.476},
      {"measurement": "relative viability", "setting": "[7]; first compound 0.4 µM", "result": 0.419},
      {"measurement": "relative viability", "setting": "[7]; first compound 1.265 µM", "result": 0.449},
      {"measurement": "relative viability", "setting": "[7]; first compound 4 µM", "result": 0.516},
      {"measurement": "relative viability", "setting": "[8]; first compound 0.04 µM", "result": 1.04},
      {"measurement": "relative viability", "setting": "[8]; first compound 0.1265 µM", "result": 1.07},
      {"measurement": "relative viability", "setting": "[8]; first compound 0.4 µM", "result": 0.901},
      {"measurement": "relative viability", "setting": "[8]; first compound 1.265 µM", "result": 1.01},
      {"measurement": "relative viability", "setting": "[8]; first compound 4 µM", "result": 0.683},
      {"measurement": "relative viability", "setting": "[9]; first compound 0.04 µM", "result": 0.665},
      {"measurement": "relative viability", "setting": "[9]; first compound 0.1265 µM", "result": 0.61},
      {"measurement": "relative viability", "setting": "[9]; first compound 0.4 µM", "result": 0.465},
      {"measurement": "relative viability", "setting": "[9]; first compound 1.265 µM", "result": 0.454},
      {"measurement": "relative viability", "setting": "[9]; first compound 4 µM", "result": 0.466},
      {"measurement": "relative viability", "setting": "[10]; first compound 0.04 µM", "result": 0.345},
      {"measurement": "relative viability", "setting": "[10]; first compound 0.1265 µM", "result": 0.315},
      {"measurement": "relative viability", "setting": "[10]; first compound 0.4 µM", "result": 0.343},
      {"measurement": "relative viability", "setting": "[10]; first compound 1.265 µM", "result": 0.38},
      {"measurement": "relative viability", "setting": "[10]; first compound 4 µM", "result": 0.0818},
      {"measurement": "relative viability", "setting": "[11]; first compound 0.04 µM", "result": 0.582},
      {"measurement": "relative viability", "setting": "[11]; first compound 0.1265 µM", "result": 0.713},
      {"measurement": "relative viability", "setting": "[11]; first compound 0.4 µM", "result": 0.583},
      {"measurement": "relative viability", "setting": "[11]; first compound 1.265 µM", "result": 0.517},
      {"measurement": "relative viability", "setting": "[11]; first compound 4 µM", "result": 0.528},
      {"measurement": "relative viability", "setting": "[12]; first compound 0.04 µM", "result": 0.744},
      {"measurement": "relative viability", "setting": "[12]; first compound 0.1265 µM", "result": 0.376},
      {"measurement": "relative viability", "setting": "[12]; first compound 0.4 µM", "result": 0.315},
      {"measurement": "relative viability", "setting": "[12]; first compound 1.265 µM", "result": 0.24},
      {"measurement": "relative viability", "setting": "[12]; first compound 4 µM", "result": 0.114},
      {"measurement": "relative viability", "setting": "[13]; first compound 0.04 µM", "result": 1.05},
      {"measurement": "relative viability", "setting": "[13]; first compound 0.1265 µM", "result": 1.07},
      {"measurement": "relative viability", "setting": "[13]; first compound 0.4 µM", "result": 1.04},
      {"measurement": "relative viability", "setting": "[13]; first compound 1.265 µM", "result": 1.06},
      {"measurement": "relative viability", "setting": "[13]; first compound 4 µM", "result": 0.697},
      {"measurement": "relative viability", "setting": "[14]; first compound 0.04 µM", "result": 1.11},
      {"measurement": "relative viability", "setting": "[14]; first compound 0.1265 µM", "result": 1.05},
      {"measurement": "relative viability", "setting": "[14]; first compound 0.4 µM", "result": 1.06},
      {"measurement": "relative viability", "setting": "[14]; first compound 1.265 µM", "result": 1.12},
      {"measurement": "relative viability", "setting": "[14]; first compound 4 µM", "result": 1.11},
      {"measurement": "relative viability", "setting": "[15]; first compound 0.04 µM", "result": 0.714},
      {"measurement": "relative viability", "setting": "[15]; first compound 0.1265 µM", "result": 0.731},
      {"measurement": "relative viability", "setting": "[15]; first compound 0.4 µM", "result": 0.762},
      {"measurement": "relative viability", "setting": "[15]; first compound 1.265 µM", "result": 0.69},
      {"measurement": "relative viability", "setting": "[15]; first compound 4 µM", "result": 0.474},
      {"measurement": "relative viability", "setting": "[16]; first compound 0.04 µM", "result": 0.819},
      {"measurement": "relative viability", "setting": "[16]; first compound 0.1265 µM", "result": 0.878},
      {"measurement": "relative viability", "setting": "[16]; first compound 0.4 µM", "result": 0.907},
      {"measurement": "relative viability", "setting": "[16]; first compound 1.265 µM", "result": 0.402},
      {"measurement": "relative viability", "setting": "[16]; first compound 4 µM", "result": 0.934},
      {"measurement": "relative viability", "setting": "[17]; first compound 0.04 µM", "result": 0.69},
      {"measurement": "relative viability", "setting": "[17]; first compound 0.1265 µM", "result": 0.697},
      {"measurement": "relative viability", "setting": "[17]; first compound 0.4 µM", "result": 0.689},
      {"measurement": "relative viability", "setting": "[17]; first compound 1.265 µM", "result": 0.741},
      {"measurement": "relative viability", "setting": "[17]; first compound 4 µM", "result": 0.463},
      {"measurement": "relative viability", "setting": "[18]; first compound 0.04 µM", "result": 0.7},
      {"measurement": "relative viability", "setting": "[18]; first compound 0.1265 µM", "result": 0.63},
      {"measurement": "relative viability", "setting": "[18]; first compound 0.4 µM", "result": 0.561},
      {"measurement": "relative viability", "setting": "[18]; first compound 1.265 µM", "result": 0.611},
      {"measurement": "relative viability", "setting": "[18]; first compound 4 µM", "result": 0.592},
      {"measurement": "relative viability", "setting": "[19]; first compound 0.04 µM", "result": 0.803},
      {"measurement": "relative viability", "setting": "[19]; first compound 0.1265 µM", "result": 0.761},
      {"measurement": "relative viability", "setting": "[19]; first compound 0.4 µM", "result": 0.616},
      {"measurement": "relative viability", "setting": "[19]; first compound 1.265 µM", "result": 0.828},
      {"measurement": "relative viability", "setting": "[19]; first compound 4 µM", "result": 0.697},
      {"measurement": "relative viability", "setting": "[20]; first compound 0.04 µM", "result": 0.795},
      {"measurement": "relative viability", "setting": "[20]; first compound 0.1265 µM", "result": 0.842},
      {"measurement": "relative viability", "setting": "[20]; first compound 0.4 µM", "result": 0.779},
      {"measurement": "relative viability", "setting": "[20]; first compound 1.265 µM", "result": 0.846},
      {"measurement": "relative viability", "setting": "[20]; first compound 4 µM", "result": 0.681}
    ]}
  ]
}
